The record followed here is BindingDB's records for doi:10.1021/bi9007287 (Max Planck Research, 2009).

What is called Ki is the equilibrium dissociation constant of an inhibitor or competing ligand from its target.

The structures appear in SMILES notation. A value given as a limit tells only on which side of the number the result lay.

Experiment [1] deals with Peptidyl-prolyl cis-trans isomerase B (Human, UniProt P23284). Kind of experiment: PPIase Assay. To be noted: pH 7.8; 5 °C.
The target in experiment [2] is Peptidyl-prolyl cis-trans isomerase A (Homo sapiens, UniProt P62937). Kind of experiment: PPIase Assay. To be noted: pH 7.8; 5 °C.
Sequence of Peptidyl-prolyl cis-trans isomerase A (P62937 whole entry): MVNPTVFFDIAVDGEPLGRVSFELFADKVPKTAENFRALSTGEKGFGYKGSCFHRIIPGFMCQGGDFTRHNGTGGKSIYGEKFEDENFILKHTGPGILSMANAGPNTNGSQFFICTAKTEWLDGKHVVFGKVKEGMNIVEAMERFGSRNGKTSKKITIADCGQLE
In experiment [3] the target is T1, Peptidyl-prolyl cis-trans isomerase-like 1 (Homo sapiens, UniProt Q9Y3C6).
T1 sequence (Q9Y3C6 whole entry): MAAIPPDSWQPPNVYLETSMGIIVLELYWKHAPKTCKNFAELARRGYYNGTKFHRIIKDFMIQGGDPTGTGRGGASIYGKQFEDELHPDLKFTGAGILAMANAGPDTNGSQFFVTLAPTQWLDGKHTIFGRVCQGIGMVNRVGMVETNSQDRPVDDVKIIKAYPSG
Kind of experiment: PPIase Assay. To be noted: pH 7.8; 5 °C.

In experiment [4] the target is Peptidyl-prolyl cis-trans isomerase H (Homo sapiens, UniProt O43447). Kind of experiment: PPIase Assay. To be noted: pH 7.8; 5 °C.
Sequence of Peptidyl-prolyl cis-trans isomerase H (O43447 whole entry): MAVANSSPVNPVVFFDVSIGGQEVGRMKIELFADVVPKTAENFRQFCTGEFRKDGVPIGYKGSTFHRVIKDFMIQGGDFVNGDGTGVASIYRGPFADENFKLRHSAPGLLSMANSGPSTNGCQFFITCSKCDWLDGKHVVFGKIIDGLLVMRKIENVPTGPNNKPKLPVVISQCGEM
For experiment [5], the target named is Peptidyl-prolyl cis-trans isomerase C (Mus musculus) (UniProt P30412). Kind of experiment: PPIase activity assay were performed at 283 K in quartz cuvettes with a path length of 1 cm under vigorous stirring with a Hewlett-Packard 8453A UV-vis spectrophotometer in 35 mM HEPES buffer (pH 7.8).
Sequence of Peptidyl-prolyl cis-trans isomerase C (Mus musculus) (P30412 whole entry, looked up): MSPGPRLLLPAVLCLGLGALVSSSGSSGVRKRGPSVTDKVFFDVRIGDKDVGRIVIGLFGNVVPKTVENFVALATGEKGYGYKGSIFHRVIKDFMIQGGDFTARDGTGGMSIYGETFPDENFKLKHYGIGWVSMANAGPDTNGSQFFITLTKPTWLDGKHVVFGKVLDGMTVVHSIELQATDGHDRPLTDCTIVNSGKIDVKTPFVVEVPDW

Sequence of Peptidyl-prolyl cis-trans isomerase B (P23284 whole entry): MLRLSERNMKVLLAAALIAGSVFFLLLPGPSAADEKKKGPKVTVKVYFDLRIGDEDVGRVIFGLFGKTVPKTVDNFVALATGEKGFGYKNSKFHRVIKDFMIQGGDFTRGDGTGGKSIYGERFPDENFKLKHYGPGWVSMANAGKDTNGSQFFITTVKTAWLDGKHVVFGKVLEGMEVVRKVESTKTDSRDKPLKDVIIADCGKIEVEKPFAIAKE

Turning to `O=C1Oc2ccccc2C12Cc1ccccc1C2` [Benzofuranone, 8], the inhibitory constant (Ki) in experiment [1] and in experiment [2] was greater than 100 µM each time.

Take `COc1ccc(C(F)(F)F)cc1C(=O)C1CCc2ccccc21` (centres undefined) [Aryl 1-indanylketone, 5]: the Ki in experiment [1] was greater than 100 µM; in experiment [2] it was 10 µM.

Regarding `COc1ccc(-c2ccc(OC(F)(F)F)cc2)cc1C(=O)C1CCc2ccccc21` (centres undefined) [Aryl 1-indanylketone, 4], the Ki in experiment [1] stood at 2.1 µM; in experiment [2], 1.2 µM.

For the compound `COc1ccc(F)cc1-c1cc(N)c(O)c(C(=O)C2CCc3ccccc32)c1` (centres undefined) [Aryl 1-indanylketone, 3], the Ki in experiment [1] was 8.6 µM; in experiment [2], 1.7 µM.

In the case of `COc1ccc(F)cc1C(=O)C1(C)CCc2ccccc21` (centres undefined) [Aryl 1-indanylketone, 6], the Ki in experiment [1] and in experiment [2] was greater than 100 µM each time.

As for `O=C(c1cc(-c2cc(F)cc([N+](=O)[O-])c2O)cc([N+](=O)[O-])c1O)C1CCc2ccccc21` (centres undefined) [Aryl 1-indanylketone, 1], the Ki in experiment [3] was 29 µM; in experiment [1], greater than 100 µM; in experiment [4], greater than 100 µM; in experiment [2], 0.52 µM; in experiment [5] it was greater than 100 µM.

On to `Nc1cc(F)cc(-c2ccc(O)c(C(=O)C3CCc4ccccc43)c2)c1O` (centres undefined) [Aryl 1-indanylketone, 2], for which the Ki in experiment [3] is greater than 100 µM; in experiment [1], 12 µM; in experiment [4] it was greater than 100 µM; in experiment [2] it was 0.3 µM; in experiment [5], greater than 100 µM.

As to `COc1ccc2c(c1)C1(CC(C)c3ccccc31)C(=O)O2` (centres undefined) [Benzofuranone, 7], the Ki was greater than 100 µM in experiment [1] and 21 µM in experiment [2].

In the case of `COc1ccc2c(c1)C(=O)C1(Cc3ccccc3C1)O2` [Benzofuranone, 9], the Ki in experiment [1] is 63 µM; in experiment [2], greater than 100 µM.
